{"source": "ChEMBL document CHEMBL1201862", "about": "“PubChem BioAssay data set” (2004)", "key": {"[1]": {"assay": "HEp-2 cell cytotoxicity, dose response, cytotoxicity control for RSV inhibitor project, HTS (AID 2410)", "type": "functional", "conditions": "human respiratory syncytial virus"}, "[2]": {"assay": "Luminescence Cell-Based Dose Retest to Confirm Inhibitors of Cancer Stem Cells. [Related pubchem assays (depositor defined):AID2717, AID2721]", "type": "functional", "conditions": "Homo sapiens"}, "[3]": {"assay": "M. tuberculosis H37Rv growth inhibitors, H37Rv strain (AID 1626)", "type": "functional"}, "[4]": {"assay": "Luminescence Cell-Based Dose Response to Identify Activators of 5'UTR Stem-Loop Driven Prion Protein mRNA Translation in H4-C Neuroglioblastoma Cells. [Related pubchem assays: 1829 (Project Summary), 1814 (Primary HTS)]", "type": "functional"}, "[5]": {"assay": "Luminescence Cell-Based Dose Response HTS to Identify Activators of Luciferase Translation or Activity in H4 […] Cells. [Related pubchem assays: 1829 (Project Summary), 1814 (Primary HTS)]", "type": "functional"}, "[6]": {"assay": "Luminescence Cell-Based Dose Response to Identify Activators of Luciferase Translation or Activity in H4-C Neuroglioblastoma Cells. [Related pubchem assays: 1829 (Project Summary), 1814 (Primary HTS)]", "type": "functional"}, "[7]": {"assay": "Luminescence Cell-Based Dose Confirmation to Identify Activators of 5'UTR Stem-Loop Driven Alpha-Synuclein mRNA Translation in H4 Neuroglioblastoma Cells. [Related pubchem assays: 1829 (Project Summary), 1814 (Primary HTS)]", "type": "functional"}, "Caspase-3": {"molecular_target": "T1, Caspase-3 (Homo sapiens, UniProt P42574)", "T1 sequence (P42574 whole entry)": "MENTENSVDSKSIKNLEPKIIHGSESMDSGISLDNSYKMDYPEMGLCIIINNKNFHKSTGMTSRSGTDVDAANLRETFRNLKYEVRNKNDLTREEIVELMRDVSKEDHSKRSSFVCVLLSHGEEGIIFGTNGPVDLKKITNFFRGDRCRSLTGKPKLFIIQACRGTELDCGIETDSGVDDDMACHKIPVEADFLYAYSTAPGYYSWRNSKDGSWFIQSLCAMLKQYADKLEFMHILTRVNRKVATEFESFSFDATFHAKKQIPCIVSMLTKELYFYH", "type": "functional"}, "[8]": {"molecular_target": "T2, Sentrin-specific protease 7 (Homo sapiens, UniProt Q9BQF6)", "T2 sequence (Q9BQF6 whole entry)": "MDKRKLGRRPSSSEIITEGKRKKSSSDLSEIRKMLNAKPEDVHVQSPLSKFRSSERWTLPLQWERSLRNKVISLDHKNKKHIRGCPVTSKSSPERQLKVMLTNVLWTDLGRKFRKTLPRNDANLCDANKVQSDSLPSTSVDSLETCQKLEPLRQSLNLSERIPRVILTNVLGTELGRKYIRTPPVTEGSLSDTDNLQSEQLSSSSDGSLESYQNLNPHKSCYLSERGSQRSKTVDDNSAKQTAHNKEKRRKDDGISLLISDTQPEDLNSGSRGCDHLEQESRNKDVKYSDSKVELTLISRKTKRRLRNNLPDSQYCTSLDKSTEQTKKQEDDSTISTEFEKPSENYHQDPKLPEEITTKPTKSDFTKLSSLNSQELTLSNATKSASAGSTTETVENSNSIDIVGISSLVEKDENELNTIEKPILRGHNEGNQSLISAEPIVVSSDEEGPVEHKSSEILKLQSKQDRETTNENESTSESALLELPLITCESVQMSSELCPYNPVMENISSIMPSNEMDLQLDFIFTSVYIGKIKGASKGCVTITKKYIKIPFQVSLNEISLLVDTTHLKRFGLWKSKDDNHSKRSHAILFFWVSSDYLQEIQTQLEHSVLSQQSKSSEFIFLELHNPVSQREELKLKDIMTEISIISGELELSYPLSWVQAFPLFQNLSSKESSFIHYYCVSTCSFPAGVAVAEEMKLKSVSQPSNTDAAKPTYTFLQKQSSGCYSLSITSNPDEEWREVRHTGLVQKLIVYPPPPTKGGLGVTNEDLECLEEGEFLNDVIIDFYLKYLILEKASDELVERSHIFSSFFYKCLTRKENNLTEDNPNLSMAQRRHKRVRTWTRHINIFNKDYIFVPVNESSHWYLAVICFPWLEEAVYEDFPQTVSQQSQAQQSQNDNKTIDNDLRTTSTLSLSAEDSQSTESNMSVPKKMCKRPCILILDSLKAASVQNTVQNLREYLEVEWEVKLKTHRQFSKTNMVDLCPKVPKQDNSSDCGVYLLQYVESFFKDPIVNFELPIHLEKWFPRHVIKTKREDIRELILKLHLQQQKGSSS", "type": "functional"}, "[9]": {"molecular_target": "T3, Sentrin-specific protease 6 (Homo sapiens, UniProt Q9GZR1)", "T3 sequence (Q9GZR1 whole entry)": "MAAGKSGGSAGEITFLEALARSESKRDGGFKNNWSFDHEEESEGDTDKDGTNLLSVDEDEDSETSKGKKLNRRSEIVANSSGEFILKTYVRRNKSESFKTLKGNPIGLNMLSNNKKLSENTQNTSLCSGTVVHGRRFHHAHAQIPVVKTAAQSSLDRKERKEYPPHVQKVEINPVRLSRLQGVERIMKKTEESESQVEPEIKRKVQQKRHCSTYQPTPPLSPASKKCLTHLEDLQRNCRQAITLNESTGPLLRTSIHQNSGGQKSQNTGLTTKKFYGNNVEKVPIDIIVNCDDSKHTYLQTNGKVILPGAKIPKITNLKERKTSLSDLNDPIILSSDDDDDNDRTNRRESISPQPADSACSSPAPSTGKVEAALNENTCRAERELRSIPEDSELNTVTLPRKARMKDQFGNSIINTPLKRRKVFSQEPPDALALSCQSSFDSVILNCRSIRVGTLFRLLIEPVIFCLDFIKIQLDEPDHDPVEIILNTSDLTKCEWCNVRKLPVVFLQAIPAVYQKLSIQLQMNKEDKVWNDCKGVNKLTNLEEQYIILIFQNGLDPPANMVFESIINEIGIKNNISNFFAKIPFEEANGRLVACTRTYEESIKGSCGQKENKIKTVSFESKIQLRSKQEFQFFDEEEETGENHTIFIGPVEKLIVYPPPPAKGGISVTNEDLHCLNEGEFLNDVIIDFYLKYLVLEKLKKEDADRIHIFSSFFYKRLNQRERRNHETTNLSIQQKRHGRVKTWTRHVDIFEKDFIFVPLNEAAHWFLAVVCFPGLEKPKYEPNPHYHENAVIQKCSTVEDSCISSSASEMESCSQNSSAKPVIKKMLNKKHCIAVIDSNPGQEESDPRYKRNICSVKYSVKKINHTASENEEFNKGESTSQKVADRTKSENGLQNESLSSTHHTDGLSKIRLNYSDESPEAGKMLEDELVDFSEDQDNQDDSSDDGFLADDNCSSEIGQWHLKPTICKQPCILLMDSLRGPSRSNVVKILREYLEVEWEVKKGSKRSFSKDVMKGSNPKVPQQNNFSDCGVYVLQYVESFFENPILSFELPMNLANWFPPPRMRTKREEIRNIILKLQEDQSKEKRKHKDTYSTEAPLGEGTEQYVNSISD", "type": "functional"}, "[10]": {"molecular_target": "T4, Sentrin-specific protease 8 (Homo sapiens, UniProt Q96LD8)", "T4 sequence (Q96LD8 whole entry)": "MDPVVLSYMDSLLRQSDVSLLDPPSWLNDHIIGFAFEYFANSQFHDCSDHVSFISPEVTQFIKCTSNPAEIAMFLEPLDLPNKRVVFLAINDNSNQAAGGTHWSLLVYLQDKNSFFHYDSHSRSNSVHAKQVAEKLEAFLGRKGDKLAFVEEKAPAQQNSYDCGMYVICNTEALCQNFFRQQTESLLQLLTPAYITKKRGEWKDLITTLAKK", "type": "functional"}, "Fatty acid synthase [11]": {"molecular_target": "T5, Fatty acid synthase (Homo sapiens, UniProt P49327)", "T5 sequence (P49327 whole entry, the tested form may be a part)": "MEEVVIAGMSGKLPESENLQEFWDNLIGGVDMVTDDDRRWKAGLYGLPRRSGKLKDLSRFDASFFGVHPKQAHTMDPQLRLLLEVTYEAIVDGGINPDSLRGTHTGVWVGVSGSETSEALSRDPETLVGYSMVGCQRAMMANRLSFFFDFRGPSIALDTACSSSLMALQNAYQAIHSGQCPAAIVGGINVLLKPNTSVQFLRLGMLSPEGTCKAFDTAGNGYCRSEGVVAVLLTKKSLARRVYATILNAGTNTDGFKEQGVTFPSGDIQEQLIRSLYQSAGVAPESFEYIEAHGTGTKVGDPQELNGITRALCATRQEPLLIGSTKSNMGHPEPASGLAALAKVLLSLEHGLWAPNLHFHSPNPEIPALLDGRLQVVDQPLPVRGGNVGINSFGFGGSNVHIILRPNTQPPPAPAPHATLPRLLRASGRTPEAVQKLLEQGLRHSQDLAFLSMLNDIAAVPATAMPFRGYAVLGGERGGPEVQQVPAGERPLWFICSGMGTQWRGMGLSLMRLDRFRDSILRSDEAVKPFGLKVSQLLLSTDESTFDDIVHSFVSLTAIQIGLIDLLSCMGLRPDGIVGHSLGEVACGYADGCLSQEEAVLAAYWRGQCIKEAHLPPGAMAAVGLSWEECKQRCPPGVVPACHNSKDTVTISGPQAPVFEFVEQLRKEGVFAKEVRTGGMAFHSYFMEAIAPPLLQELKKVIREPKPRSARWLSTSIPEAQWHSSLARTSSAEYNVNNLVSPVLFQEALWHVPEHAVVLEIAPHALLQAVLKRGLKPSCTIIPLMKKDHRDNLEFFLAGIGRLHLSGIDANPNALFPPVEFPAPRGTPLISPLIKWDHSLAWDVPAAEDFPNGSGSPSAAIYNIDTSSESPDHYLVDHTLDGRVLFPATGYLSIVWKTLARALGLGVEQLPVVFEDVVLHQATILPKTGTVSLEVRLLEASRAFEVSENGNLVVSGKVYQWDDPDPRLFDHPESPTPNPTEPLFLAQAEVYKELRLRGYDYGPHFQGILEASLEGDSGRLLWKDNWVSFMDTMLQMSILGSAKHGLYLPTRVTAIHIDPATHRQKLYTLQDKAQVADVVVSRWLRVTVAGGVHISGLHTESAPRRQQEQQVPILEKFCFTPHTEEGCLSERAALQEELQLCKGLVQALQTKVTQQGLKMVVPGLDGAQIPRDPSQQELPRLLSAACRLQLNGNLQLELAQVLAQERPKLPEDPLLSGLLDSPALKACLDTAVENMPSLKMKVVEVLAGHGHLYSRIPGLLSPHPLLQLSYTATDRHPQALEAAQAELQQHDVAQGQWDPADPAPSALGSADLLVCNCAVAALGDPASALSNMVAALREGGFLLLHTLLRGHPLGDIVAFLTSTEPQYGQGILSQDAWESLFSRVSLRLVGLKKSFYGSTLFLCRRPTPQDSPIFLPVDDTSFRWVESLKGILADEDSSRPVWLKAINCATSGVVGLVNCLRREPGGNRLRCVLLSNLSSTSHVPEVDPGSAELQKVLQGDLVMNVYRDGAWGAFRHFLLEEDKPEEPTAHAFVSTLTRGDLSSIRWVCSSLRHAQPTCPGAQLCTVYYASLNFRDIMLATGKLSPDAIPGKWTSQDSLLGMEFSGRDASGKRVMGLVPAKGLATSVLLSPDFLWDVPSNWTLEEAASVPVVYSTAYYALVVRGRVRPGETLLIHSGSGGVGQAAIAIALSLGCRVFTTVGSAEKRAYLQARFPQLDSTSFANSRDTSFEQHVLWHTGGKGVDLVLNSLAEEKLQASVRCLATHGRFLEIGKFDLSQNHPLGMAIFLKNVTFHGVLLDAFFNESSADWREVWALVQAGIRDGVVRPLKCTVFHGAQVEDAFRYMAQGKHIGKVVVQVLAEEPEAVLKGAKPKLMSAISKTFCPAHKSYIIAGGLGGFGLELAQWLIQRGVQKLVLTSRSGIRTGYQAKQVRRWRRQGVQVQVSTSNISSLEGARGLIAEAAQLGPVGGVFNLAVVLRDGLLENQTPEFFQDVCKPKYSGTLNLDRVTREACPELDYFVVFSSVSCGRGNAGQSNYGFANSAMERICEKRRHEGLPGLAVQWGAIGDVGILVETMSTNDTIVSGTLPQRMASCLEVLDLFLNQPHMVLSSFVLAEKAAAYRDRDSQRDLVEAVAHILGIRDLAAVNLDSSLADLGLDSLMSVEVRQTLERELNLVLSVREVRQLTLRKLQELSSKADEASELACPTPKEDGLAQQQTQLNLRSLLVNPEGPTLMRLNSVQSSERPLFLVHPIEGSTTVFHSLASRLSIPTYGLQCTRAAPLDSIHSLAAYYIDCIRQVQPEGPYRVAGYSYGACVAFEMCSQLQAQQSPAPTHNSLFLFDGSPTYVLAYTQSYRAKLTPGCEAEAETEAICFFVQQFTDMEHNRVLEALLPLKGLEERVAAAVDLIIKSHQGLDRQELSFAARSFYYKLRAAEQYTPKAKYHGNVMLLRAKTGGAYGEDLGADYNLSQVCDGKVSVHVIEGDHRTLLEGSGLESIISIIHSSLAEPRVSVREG", "assay": "FAS thioesterase domain inhibitors, dose response, biochemical, endpoint fluorescence intensity, uHTS hits (AID 624327);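 also: fluorescence from hydrolysis of an O-methyl fluorescein acyl ester substrate by the enzyme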", "type": "functional"}, "Fatty acid synthase [12]": {"molecular_target": "T5, Fatty acid synthase", "assay": "FAS thioesterase domain inhibitors, dose response, biochemical, kinetic fluorescence intensity (AID 624326);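 also: rate of fluorescence rise from hydrolysis of a fluorogenic O-methyl fluorescein ester substrate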", "type": "functional"}, "Aminopeptidase N": {"molecular_target": "T6, Aminopeptidase N (Plasmodium falciparum FcB1/Columbia, UniProt O96935)", "T6 sequence (O96935 whole entry)": "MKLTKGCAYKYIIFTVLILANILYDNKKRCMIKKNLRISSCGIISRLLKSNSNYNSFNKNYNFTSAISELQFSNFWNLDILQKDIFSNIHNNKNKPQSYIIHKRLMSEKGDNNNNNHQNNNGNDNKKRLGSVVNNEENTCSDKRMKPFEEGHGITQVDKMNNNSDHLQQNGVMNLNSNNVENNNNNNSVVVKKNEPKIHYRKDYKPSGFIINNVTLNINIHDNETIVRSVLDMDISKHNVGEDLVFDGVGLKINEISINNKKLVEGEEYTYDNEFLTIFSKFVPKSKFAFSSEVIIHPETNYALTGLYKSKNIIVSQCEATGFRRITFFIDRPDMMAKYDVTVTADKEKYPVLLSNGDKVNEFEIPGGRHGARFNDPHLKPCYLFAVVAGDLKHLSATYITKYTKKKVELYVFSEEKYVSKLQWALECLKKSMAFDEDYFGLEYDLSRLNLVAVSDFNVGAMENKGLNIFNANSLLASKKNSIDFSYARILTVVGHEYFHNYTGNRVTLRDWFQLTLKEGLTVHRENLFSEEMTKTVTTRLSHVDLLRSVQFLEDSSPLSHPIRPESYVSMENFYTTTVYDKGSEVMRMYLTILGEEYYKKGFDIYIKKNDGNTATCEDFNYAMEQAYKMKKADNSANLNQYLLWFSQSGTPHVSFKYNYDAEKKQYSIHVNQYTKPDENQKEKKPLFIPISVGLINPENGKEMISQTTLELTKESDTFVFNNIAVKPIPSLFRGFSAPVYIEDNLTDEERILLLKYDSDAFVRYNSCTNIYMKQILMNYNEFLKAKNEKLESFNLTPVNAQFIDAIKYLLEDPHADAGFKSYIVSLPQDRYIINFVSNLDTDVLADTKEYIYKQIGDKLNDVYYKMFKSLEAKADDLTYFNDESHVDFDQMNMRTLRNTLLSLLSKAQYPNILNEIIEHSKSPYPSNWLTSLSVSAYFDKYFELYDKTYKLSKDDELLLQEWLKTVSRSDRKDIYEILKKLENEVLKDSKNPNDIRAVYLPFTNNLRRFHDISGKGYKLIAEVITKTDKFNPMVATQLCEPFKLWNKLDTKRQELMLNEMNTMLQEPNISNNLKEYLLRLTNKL", "assay": "P. falciparum M1AAP inhibitors, biochemical, fluorogenic H-Leu-NHMec substrate, 1536-well (AID 1445)", "parameters": "species or system Plasmodium falciparum 3D7, 3D7"}}, "note": "Active and inactive are the calls of the source.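 For AC50 in this document: cells exposed to compound for roughly 70 hours or longer before luminescence read.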"}
{"compound": "COCCNc1cc(-c2ccccc2)nc2cc(-c3cccc(F)c3)nn12", "values": [{"measurement": "CC50", "setting": "[1]", "value": "35.1 µM (active)"}, {"measurement": "AC50", "setting": "[2]", "value": "6.74 µM (active)"}, {"measurement": "IC50", "setting": "cells", "value": "41.8 µM (active)"}]}
{"compound": "CC(C(=O)N=Nc1c(O)[nH]c2ccccc12)n1cnc2ccccc2c1=O", "note": "(stereo not drawn)", "values": [{"measurement": "IC50", "setting": "cells", "value": "> 50 µM (active)"}]}
{"compound": "CCN(Cc1nc(O)c2ccccc2n1)C(=O)c1cc(C2CC2)nn1-c1ccccc1", "values": [{"measurement": "IC50", "setting": "cells", "value": "8.79 µM (active)"}]}
{"compound": "Nc1nc(COc2ccc(Cl)cc2)cs1", "values": [{"measurement": "IC50", "setting": "[3]", "value": "> 100 µM (active)"}]}
{"compound": "CCCc1nc2sc3ccccc3c(=O)c2c(=O)n1Cc1ccc(OC)cc1", "values": [{"measurement": "IC50", "setting": "[3]", "value": "> 100 µM (active)"}]}
{"compound": "Cc1ccc(OCc2nc(-c3ccccc3)no2)c(C)c1", "values": [{"measurement": "EC50", "setting": "[4]", "value": "1.03 µM (active)"}, {"measurement": "EC50", "setting": "[5]", "value": "< 0.1 µM (active)"}, {"measurement": "EC50", "setting": "[6]", "value": "> 12 µM (not active)"}, {"measurement": "EC50", "setting": "[7]", "value": "8.27 µM (active)"}, {"measurement": "IC50", "setting": "Caspase-3", "value": "28.9 µM (active)"}, {"measurement": "IC50", "setting": "[8]", "value": "7.65 µM (active)"}, {"measurement": "IC50", "setting": "[9]", "value": "11.8 µM (active)"}, {"measurement": "IC50", "setting": "[10]", "value": "62 µM (active)"}]}
{"compound": "Cc1cccn2c(=O)c(/C=C(\\C#N)C(=O)NCc3ccco3)c(N3CCCCCC3)nc12", "values": [{"measurement": "CC50", "setting": "[1]", "value": "22 µM (active)"}, {"measurement": "IC50", "setting": "Fatty acid synthase [11]", "value": "21.9 µM (inactive)"}, {"measurement": "IC50", "setting": "Fatty acid synthase [12]", "value": "9.53 µM (active)"}, {"measurement": "IC50", "setting": "cells", "value": "22.5 µM (active)"}]}
{"compound": "Clc1ccc(/C=N/Nc2nnn[nH]2)cc1", "values": [{"measurement": "IC50", "setting": "Aminopeptidase N", "value": "92.8 µM (active)"}]}
{"compound": "CCOc1nn(-c2ccccc2)c(O)c1/C=N/c1ccc(OC)cc1", "values": [{"measurement": "IC50", "setting": "[3]", "value": "> 100 µM (active)"}]}
{"compound": "COc1nc(N=C(N)N)nc2c(C)cccc12", "values": [{"measurement": "IC50", "setting": "Aminopeptidase N", "value": "22.2 µM (active)"}]}
{"compound": "CCOC(=O)c1ccc(NC(=O)N2CCN(Cc3ccccc3)CC2)cc1", "values": [{"measurement": "IC50", "setting": "[3]", "value": "> 100 µM (active)"}]}
